Like-named read-outs stand apart in the source and are kept apart here.
How the values were obtained:
Format in all cases: cell-based, human
[1] = test system: MDA Breast Cancer Cell Line; experiment: MTT cytotoxicity assay, transfected MDA cells plus chemotherapeutic drug; settings: for IC50: Homo sapiens, mock-transfected control, read-out: EC50, Control; for IC50 / EC50 / fold change of EC50, Prohibitin vs Control: MDA cells; for EC50: prohibitin (siRNA) transfected, read-out: EC50, Prohibitin
Description: (§1) For a typical siRNA transfection, 1 nmole of the annealed siRNA duplex was mixed with 1.4 ml of Opti-MEM reagent (Invitrogen). In another tube, […] of Oligofectamine reagent (Invitrogen, Carlsbad, Calif.) was mixed with […] of Opti-MEM. The two solutions were combined and mixed gently by inversion and incubated for 20 min. at RT. The resulting solution was added to the cultured cells drop by drop in a 10 cm dish (cells are approximately 40-50% confluent). The next day the transfected cells were trypsinized and seeded in 6 or 96-well plates and further incubated for the indicated amount of time (assay dependent) before further analysis.
(§2) RNA-transfected cells were seeded in triplicate into 96-well plates at 5×10^3 cells/well 48 hrs post-transfection. The cells were incubated for an additional 16 to 24 hrs before they were exposed to increasing concentrations of cytotoxic drugs. […] Appropriate dilutions were made in the respective media for each cell line. Following addition of drugs, incubation was continued for an additional 72 hrs. […] of MTT dye (5 mg/ml) were added into each well and the plate was further incubated at 37° C. for 4 hrs. The dye was solubilized with 10% Triton X-100, 0.01 N HCl and further incubated at 37° C. in the dark for 30 min. Cell viability was determined by measure of absorption at 570 nm in a Wallac multiwell plate reader (PerkinElmer, Inc., Boston, Mass.). The averages of triplicate wells were plotted using the Prism software (GraphPad Software, Inc., San Diego, Calif.).

[2] = test system: MCF-7 Breast Cancer Cell Line; experiment: MTT cytotoxicity assay, transfected MCF-7 cells plus chemotherapeutic drug; settings: for sensitivity to drug of prohibitin siRNA treated cells: MCF-7, FIGS. 15A-15H; for EC50: prohibitin (siRNA) transfected, read-out: EC50, Prohibitin; for fold change of EC50, Prohibitin vs Control: direction IS/IR in same cell (E42)
Description: as §1
as §2, with “Cell survival was determined using the MTT cytotoxicity assay (see, e.g., Tokuyama et al. (2005) Anticancer Res. 25(1A): 17-22). RNA-transfected” for “RNA-transfected”, “drugs. Doxorubicin (adriamycin), cisplatinum, taxol, vinblastin, vincristin, and mitoxantrone were all purchased from Sigma Corp. (St. Louis, Mo.).” for “drugs.”
Cell survival was determined as described in Example 3 above.

[3] = test system: SKOV3 Ovarian Cancer Cell Line; experiment: MTT cytotoxicity assay, transfected SKOV3 cells plus chemotherapeutic drug; settings: for IC50: Homo sapiens, SK-OV-3, SKOV3 cells, mock-transfected control, read-out: EC50, Control; for EC50 / fold change of EC50, Prohibitin vs Control: SKOV3 cells; for EC50: prohibitin (siRNA) transfected, read-out: EC50, Prohibitin; for fold change of EC50, Prohibitin vs Control: direction IS/IR in same cell (E54)
Description: as §1, §2
Each table summarizes the results of an individual experiment performed in triplicate.

[4] = Table 3 experiment, direction IS/IR in same cell (E6)
[5] = Table 4 experiment, direction IS/IR in same cell (E12)
[6] = Table 7 experiment, direction IS/IR in same cell (E30)
[7] = Table 8 experiment, direction IS/IR in same cell (E36)

Row | SMILES | IC50 ([1]; Table 3 experiment) [nM] | IC50 ([1]; Table 4 experiment) [nM] | IC50 ([1]; Table 7 experiment) [nM] | IC50 ([1]; Table 8 experiment) [nM] | EC50 ([1]; Table 3 experiment) [nM] | EC50 ([1]; Table 4 experiment) [nM] | EC50 ([1]; Table 7 experiment) [nM] | EC50 ([1]; Table 8 experiment) [nM] | fold change of EC50, Prohibitin vs Control [1, 4] [x] | fold change of EC50, Prohibitin vs Control [1, 5] [x] | fold change of EC50, Prohibitin vs Control [1, 6] [x] | fold change of EC50, Prohibitin vs Control [1, 7] [x] | sensitivity to drug of prohibitin siRNA treated cells compared to mock controls ([1]; MDA, FIGS. 14A-14H) | EC50 ([2]; MCF-7 cells, Table 9) [nM] | fold change of EC50, Prohibitin vs Control ([2]; MCF-7 cells, Table 9) [x] | IC50 ([3]; Table 10 experiment) [nM] | IC50 ([3]; Table 11 experiment) [nM] | EC50 ([3]; Table 10 experiment) [nM] | EC50 ([3]; Table 11 experiment) [nM] | fold change of EC50, Prohibitin vs Control ([3]; Table 11 experiment) [x] | other results
1 | O=C1c2c(O)ccc(O)c2C(=O)c2c(NCCNCCO)ccc(NCCNCCO)c21 [Mitoxantrone] | 0.11 | 0.0961 | 44.1 | 40.9 | 0.173 | 0.409 | 27.6 | 26.6 | 1.6 | 4.2 | 1.6 | 1.5 | more sensitive | 3.94 | 2.2 | 0.801 | 0.147 | 0.358 | 0.118 | 1.2 | sensitivity to drug of prohibitin siRNA treated cells compared to mock controls ([1]; MDA, FIGS. 13A-13H): increased the sensitivity; sensitivity to drug of prohibitin siRNA treated cells [2]: more sensitive
2 | CC(=O)O[C@H]1C(=O)[C@@]2(C)[C@H]([C@H](OC(=O)c3ccccc3)[C@]3(O)C[C@H](OC(=O)[C@H](O)[C@@H](NC(=O)c4ccccc4)c4ccccc4)C(C)=C1C3(C)C)[C@]1(OC(C)=O)CO[C@@H]1C[C@@H]2O [Taxol] | 200 | 316 | 8.32 | 19.2 | 515 | 301 | 4.38 | 12.7 | 2.6 |  | 1.9 | 1.5 | more sensitive | 2.62 | 30.0 | 0.895 | 1.82 | 0.536 | 1.09 | 1.7 | IC50 ([1]; Table 5 experiment): 5.11 nM; IC50 ([1]; Table 6 experiment): 10.8 nM; EC50 ([1]; Table 5 experiment): 6.55 nM; EC50 ([1]; Table 6 experiment): 6.19 nM; fold change of EC50, Prohibitin vs Control ([1]; Table 5 experiment, direction IS/IR in same cell (E18)): 1.3 x; fold change of EC50, Prohibitin vs Control ([1]; Table 6 experiment, direction IS/IR in same cell (E24)): 1.7 x; sensitivity to drug of prohibitin siRNA treated cells compared to mock controls ([1]; MDA, FIGS. 12A-12D): increased sensitivity; sensitivity to drug of prohibitin siRNA treated cells compared to mock controls ([1]; MDA, FIGS. 13A-13H): increased the sensitivity; sensitivity to drug of prohibitin siRNA treated cells [2]: more sensitive; increase in sensitivity to drug as compared to controls ([2]; MCF-7 cells treated with prohibitin siRNA, FIG. 15B): 30 fold
3 | CC[C@]1(O)C[C@H]2CN(CCc3c([nH]c4ccccc34)[C@@](C(=O)OC)(c3cc4c(cc3OC)N(C=O)[C@H]3[C@@](O)(C(=O)OC)[C@H](OC(C)=O)[C@]5(CC)C=CCN6CC[C@]43[C@@H]65)C2)C1 [Vincristin] | 2840 | 1480 | 12.3 | 12.4 | 837 | 18600 |  | 4.3 | 3.4 | 12.5 |  | 2.9 | more sensitive | 350 | 2.1 | 3.75 | 3.58 | 3.17 | 2.53 | 1.4 | sensitivity to drug of prohibitin siRNA treated cells compared to mock-treated cells ([1]; MDA, FIG. 9A-9H): increased sensitivity; change in sensitivity to the drug, Prohibitin vs Control ([2]; MCF-7 cells, Table 9): IR (IR: “increased in resistance” to the drug)
